# Experimental data as given in patent US8877814B2, “Titration package for neramexane and its use in the treatment of an inner ear disorder” (Merz Pharma GmbH & Co. KGaA, priority 2007, dated 2014).
# How the values were obtained:
# α 9/α 10 nicotinic = α 9/α 10 nicotinic (Rattus norvegicus, UniProt P43144+Q9JLB5); conditions: Plazas et al., Eur J. Pharmacol. 2007; cited from earlier work
# 5-HT3 receptors = conditions: cited from earlier work
# [1] = tested on: patients afflicted with various degrees of hearing loss; test: Double blind placebo controlled pilot trial of neramexane for treatment of hearing loss; type: in vivo, human; conditions: neramexane mesylate up to 75 mg/d, compared to the placebo group
# Experimental: A hearing threshold level may be defined as the average of the pure tone hearing threshold levels at testing frequencies of 0.25, 0.5, 1, 2 and 4 kHz.
# The primary objective of this study is to investigate the safety and efficacy of neramexane mesylate at daily doses of up to 75 mg in the treatment of hearing loss in comparison to placebo.
# Neramexane mesylate (or placebo) is uptitrated to a maximum daily dose of 75 mg, starting with a daily dose of 25 mg for one week, and increasing dosage in 25 mg steps at weekly intervals.
# Treatment is started in the evening of study day 1. The daily starting dose is 25 mg neramexane mesylate per dose to be taken for 7 days at bedtime. […]
# Primary Outcome • Change from baseline in hearing threshold level of left/right ear (dB) calculated as average of the pure tone hearing level threshold levels at 0.25, 0.5, 1, 2 and 4 kHz.
# Secondary Outcomes • Change from baseline in high frequency hearing threshold of left/right ear (dB) calculated as average of the pure tone hearing threshold levels at 4, 6, 8 and 10 kHz • Change from baseline in individual frequencies (hearing thresholds) on a pure tone audiogram (air conduction) • Number of Responder • Patient-reported outcome on a 11-point Likert-Scale (0=hearing is not a problem, 10=hearing is a problem as much as possible) • Change in hearing impairment based on the hearing threshold level: […]
# [2] = tested on: subjects with subjective tinnitus of at least moderate severity; test: Double blind placebo controlled pilot trial of neramexane for tinnitus: treatment emergent adverse events leading to drop-out
# Experimental: The primary objective of this study was to compare the efficacy, tolerability and safety of neramexane mesylate at three different dosages (25, 50 or 75 mg/d) with placebo in subjects with subjective tinnitus of at least moderate severity.
# In a double-blind, multicenter, randomized, placebo-controlled, parallel-group study, the efficacy of neramexane in subjects suffering from tinnitus of at least moderate severity was assessed. Approximately 100 patients, who fulfilled particular inclusion criteria and met none of particular exclusion criteria, were randomized to each of four double-blind treatment groups (neramexane mesylate 25, 50, 75 mg/d or placebo), resulting in approximately 400 patients in total.
# The double-blind, 16-week treatment period consisted of a 4-week uptitration period and a 12-week fixed-dose treatment period at unchanged maintenance b.i.d. dosing. In case of poor tolerability, however, the investigator could consider a dose reduction by 25 mg/d (or placebo, respectively). […] In total, this study involved seven study visits: screening, baseline, and at the end of weeks 4, 8, 12, 16, and 20. (Participants received either neramexane mesylate (e.g. 50 mg, as 25 mg immediate release tablets given twice daily) or placebo twice daily for 16 weeks. Neramexane mesylate was uptitrated in weekly steps of 12.5 or 25 mg during a 4-week uptitration period preceding the fixed-dose 12-week treatment period. Treatment was followed by a four week follow-up period.)
# Neramexane mesylate immediate release tablets (12.5 mg and 25 mg) and matching placebo tablets were administered as film coated tablets.
# Study medication was dispensed at Visit 2 (baseline, day 0). Each patient received one blister box containing 5 blister cards (including one reserve blister) of double-blind study medication (i.e., 32 tablets). Subjects were instructed to take 2 tablets twice daily (4 tablets/d), beginning the day after dispensing of the study medication, until they returned for their next study visit (Visit 3). For those subjects assigned to receive active medication, some placebo tablets were incorporated into the dosing regimen to ensure blinding during the uptitration period. The target fixed-maintenance dose of 25, 50, or 75 mg/d was administered starting with the fifth week of double-blind treatment and was continued throughout the study. At each of the subsequent visits (Visits 3, 4, and 5, corresponding to end of week 4, 8 and 12) patients received another blister box containing 5 blister cards for the 4 week intervals, with double-blind medication for the intervening treatment period until the next study visit.
# In case of poor tolerability the investigator could consider a dose reduction of 25 mg/d by omitting the bigger tablet in the morning which constituted an effective dose reduction only in the 75 mg/d and 50 mg/d neramexane mesylate groups. After omitting the bigger tablet (25 mg or placebo, respectively) of the morning dose, these patients could then continue the course of the study as scheduled, while receiving only one smaller tablet as the morning dose (12.5 mg or placebo, respectively) and 2 tablets of different sizes (12.5 mg, 25 mg or placebo, respectively) as the evening dose. The dose was to be kept stable until the end of the study.
# α 9/α 10 nicotinic, sequence (P43144 26-479): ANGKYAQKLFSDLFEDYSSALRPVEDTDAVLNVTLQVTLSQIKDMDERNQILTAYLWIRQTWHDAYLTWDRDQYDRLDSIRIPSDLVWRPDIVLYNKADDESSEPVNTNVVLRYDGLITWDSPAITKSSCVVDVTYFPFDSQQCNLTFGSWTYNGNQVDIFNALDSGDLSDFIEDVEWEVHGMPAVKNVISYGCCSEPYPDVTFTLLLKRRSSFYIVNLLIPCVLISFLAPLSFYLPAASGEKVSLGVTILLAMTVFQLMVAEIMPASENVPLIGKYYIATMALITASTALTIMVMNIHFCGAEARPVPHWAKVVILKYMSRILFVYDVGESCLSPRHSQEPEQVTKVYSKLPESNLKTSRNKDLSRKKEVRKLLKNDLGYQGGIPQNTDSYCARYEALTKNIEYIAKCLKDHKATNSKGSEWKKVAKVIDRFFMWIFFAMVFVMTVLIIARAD
# α 9/α 10 nicotinic, sequence (Q9JLB5 25-447): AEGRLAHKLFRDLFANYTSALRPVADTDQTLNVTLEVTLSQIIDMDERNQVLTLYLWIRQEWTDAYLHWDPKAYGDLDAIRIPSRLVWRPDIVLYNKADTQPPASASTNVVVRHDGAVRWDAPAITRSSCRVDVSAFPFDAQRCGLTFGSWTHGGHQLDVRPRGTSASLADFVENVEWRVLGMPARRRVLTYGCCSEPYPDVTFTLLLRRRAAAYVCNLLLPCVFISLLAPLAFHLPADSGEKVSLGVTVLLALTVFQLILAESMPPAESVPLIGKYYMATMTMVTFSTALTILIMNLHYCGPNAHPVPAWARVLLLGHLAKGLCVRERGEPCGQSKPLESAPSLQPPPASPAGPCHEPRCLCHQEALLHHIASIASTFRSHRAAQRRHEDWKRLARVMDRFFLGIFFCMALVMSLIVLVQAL
smiles,measurement,setting,value
"CC1(C)CC(C)(C)CC(C)(N)C1 [Neramexane, 1-amino-1,3,3,5,5-pentamethylcyclohexane]",activity at the α 9/α 10 nicotinic receptors,α 9/α 10 nicotinic,exhibit activity
same,activity at 5-HT3 receptors,5-HT3 receptors,exhibit activity
same,Primary outcome: change from baseline in hearing threshold level,[1],improvement
same,Secondary outcomes (e.g. change from baseline in different frequencies on a pure tone audiogram),[1],improvement
same,"Any adverse event leading to drop-out, % of patients","[2]; 25 mg/d, N = 108, EFS",(8.3) %
same,"Any adverse event leading to drop-out, n (number of patients)","[2]; 25 mg/d, N = 108, EFS",9
same,"Cardiovascular disorder leading to drop-out, % of patients","[2]; 25 mg/d, N = 108, EFS",(0.0) %
same,"Cardiovascular disorder leading to drop-out, n (number of patients)","[2]; 25 mg/d, N = 108, EFS",0
same,"Depression leading to drop-out, % of patients","[2]; 25 mg/d, N = 108, EFS",(0.9) %
same,"Depression leading to drop-out, n (number of patients)","[2]; 25 mg/d, N = 108, EFS",1
same,"Dizziness leading to drop-out, % of patients","[2]; 25 mg/d, N = 108, EFS",(1.9) %
same,"Dizziness leading to drop-out, n (number of patients)","[2]; 25 mg/d, N = 108, EFS",2
same,"Fatigue leading to drop-out, % of patients","[2]; 25 mg/d, N = 108, EFS",(0.0) %
same,"Fatigue leading to drop-out, n (number of patients)","[2]; 25 mg/d, N = 108, EFS",0
same,"Headache leading to drop-out, % of patients","[2]; 25 mg/d, N = 108, EFS",(0.0) %
same,"Headache leading to drop-out, n (number of patients)","[2]; 25 mg/d, N = 108, EFS",0
same,"Hyperhidrosis leading to drop-out, % of patients","[2]; 25 mg/d, N = 108, EFS",(0.0) %
same,"Hyperhidrosis leading to drop-out, n (number of patients)","[2]; 25 mg/d, N = 108, EFS",0
same,"Nausea leading to drop-out, % of patients","[2]; 25 mg/d, N = 108, EFS",(0.0) %
same,"Nausea leading to drop-out, n (number of patients)","[2]; 25 mg/d, N = 108, EFS",0
same,"Paresthesia leading to drop-out, % of patients","[2]; 25 mg/d, N = 108, EFS",(0.0) %
same,"Paresthesia leading to drop-out, n (number of patients)","[2]; 25 mg/d, N = 108, EFS",0
same,"Tinnitus leading to drop-out, % of patients","[2]; 25 mg/d, N = 108, EFS",(1.9) %
same,"Tinnitus leading to drop-out, n (number of patients)","[2]; 25 mg/d, N = 108, EFS",2
same,"Vertigo leading to drop-out, % of patients","[2]; 25 mg/d, N = 108, EFS",(0.0) %
same,"Vertigo leading to drop-out, n (number of patients)","[2]; 25 mg/d, N = 108, EFS",0
same,"Visual acuity reduced leading to drop-out, % of patients","[2]; 25 mg/d, N = 108, EFS",(0.0) %
same,"Visual acuity reduced leading to drop-out, n (number of patients)","[2]; 25 mg/d, N = 108, EFS",0
same,"Any adverse event leading to drop-out, % of patients","[2]; 50 mg/d, N = 107, EFS",(21.5) %
same,"Any adverse event leading to drop-out, n (number of patients)","[2]; 50 mg/d, N = 107, EFS",23
same,"Cardiovascular disorder leading to drop-out, % of patients","[2]; 50 mg/d, N = 107, EFS",(1.9) %
same,"Cardiovascular disorder leading to drop-out, n (number of patients)","[2]; 50 mg/d, N = 107, EFS",2
same,"Depression leading to drop-out, % of patients","[2]; 50 mg/d, N = 107, EFS",(1.9) %
same,"Depression leading to drop-out, n (number of patients)","[2]; 50 mg/d, N = 107, EFS",2
same,"Dizziness leading to drop-out, % of patients","[2]; 50 mg/d, N = 107, EFS",(5.6) %
same,"Dizziness leading to drop-out, n (number of patients)","[2]; 50 mg/d, N = 107, EFS",6
same,"Fatigue leading to drop-out, % of patients","[2]; 50 mg/d, N = 107, EFS",(1.9) %
same,"Fatigue leading to drop-out, n (number of patients)","[2]; 50 mg/d, N = 107, EFS",2
same,"Headache leading to drop-out, % of patients","[2]; 50 mg/d, N = 107, EFS",(0.9) %
same,"Headache leading to drop-out, n (number of patients)","[2]; 50 mg/d, N = 107, EFS",1
same,"Hyperhidrosis leading to drop-out, % of patients","[2]; 50 mg/d, N = 107, EFS",(0.0) %
same,"Hyperhidrosis leading to drop-out, n (number of patients)","[2]; 50 mg/d, N = 107, EFS",0
same,"Nausea leading to drop-out, % of patients","[2]; 50 mg/d, N = 107, EFS",(1.9) %
same,"Nausea leading to drop-out, n (number of patients)","[2]; 50 mg/d, N = 107, EFS",2
same,"Paresthesia leading to drop-out, % of patients","[2]; 50 mg/d, N = 107, EFS",(1.9) %
same,"Paresthesia leading to drop-out, n (number of patients)","[2]; 50 mg/d, N = 107, EFS",2
same,"Tinnitus leading to drop-out, % of patients","[2]; 50 mg/d, N = 107, EFS",(0.0) %
same,"Tinnitus leading to drop-out, n (number of patients)","[2]; 50 mg/d, N = 107, EFS",0
same,"Vertigo leading to drop-out, % of patients","[2]; 50 mg/d, N = 107, EFS",(3.7) %
same,"Vertigo leading to drop-out, n (number of patients)","[2]; 50 mg/d, N = 107, EFS",4
same,"Visual acuity reduced leading to drop-out, % of patients","[2]; 50 mg/d, N = 107, EFS",(0.0) %
same,"Visual acuity reduced leading to drop-out, n (number of patients)","[2]; 50 mg/d, N = 107, EFS",0
same,"Any adverse event leading to drop-out, % of patients","[2]; 75 mg/d, N = 102, EFS",(28.4) %
same,"Any adverse event leading to drop-out, n (number of patients)","[2]; 75 mg/d, N = 102, EFS",29
same,"Cardiovascular disorder leading to drop-out, % of patients","[2]; 75 mg/d, N = 102, EFS",(0.0) %
same,"Cardiovascular disorder leading to drop-out, n (number of patients)","[2]; 75 mg/d, N = 102, EFS",0
same,"Depression leading to drop-out, % of patients","[2]; 75 mg/d, N = 102, EFS",(0.0) %
same,"Depression leading to drop-out, n (number of patients)","[2]; 75 mg/d, N = 102, EFS",0
same,"Dizziness leading to drop-out, % of patients","[2]; 75 mg/d, N = 102, EFS",(14.7) %
same,"Dizziness leading to drop-out, n (number of patients)","[2]; 75 mg/d, N = 102, EFS",15
same,"Fatigue leading to drop-out, % of patients","[2]; 75 mg/d, N = 102, EFS",(2.0) %
same,"Fatigue leading to drop-out, n (number of patients)","[2]; 75 mg/d, N = 102, EFS",2
same,"Headache leading to drop-out, % of patients","[2]; 75 mg/d, N = 102, EFS",(2.0) %
same,"Headache leading to drop-out, n (number of patients)","[2]; 75 mg/d, N = 102, EFS",2
same,"Hyperhidrosis leading to drop-out, % of patients","[2]; 75 mg/d, N = 102, EFS",(2.0) %
same,"Hyperhidrosis leading to drop-out, n (number of patients)","[2]; 75 mg/d, N = 102, EFS",2
same,"Nausea leading to drop-out, % of patients","[2]; 75 mg/d, N = 102, EFS",(2.0) %
same,"Nausea leading to drop-out, n (number of patients)","[2]; 75 mg/d, N = 102, EFS",2
same,"Paresthesia leading to drop-out, % of patients","[2]; 75 mg/d, N = 102, EFS",(0.0) %
same,"Paresthesia leading to drop-out, n (number of patients)","[2]; 75 mg/d, N = 102, EFS",0
same,"Tinnitus leading to drop-out, % of patients","[2]; 75 mg/d, N = 102, EFS",(1.0) %
same,"Tinnitus leading to drop-out, n (number of patients)","[2]; 75 mg/d, N = 102, EFS",1
same,"Vertigo leading to drop-out, % of patients","[2]; 75 mg/d, N = 102, EFS",(2.9) %
same,"Vertigo leading to drop-out, n (number of patients)","[2]; 75 mg/d, N = 102, EFS",3
same,"Visual acuity reduced leading to drop-out, % of patients","[2]; 75 mg/d, N = 102, EFS",(2.0) %
same,"Visual acuity reduced leading to drop-out, n (number of patients)","[2]; 75 mg/d, N = 102, EFS",2
